Results from PubChem BioAssay AID248 (DTP/NCI, 2004).
Inconclusive results and toxic doses are left out. Cut-off read from the data, not from the text of the source: active = T/C of 150% or more; inactive = T/C below 125%.

Test system: L1210 leukemia ip in BDF1 mice, survival T/C
Assay: NCI In Vivo Anticancer Drug Screen. Data for tumor model L1210 Leukemia (intraperitoneal) in B6D2F1 (BDF1) mice
Settings: endpoint: mean survival time, higher = longer survival
Outline: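 Transplantable tumor model; survival measured in treated vs vehicle control mice. Value = treated/control.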

[1] = dose: 20.0 mg/kg/injection, schedule: Q01DX001 (ip), vehicle: saline
[2] = dose: 40.0 mg/kg/injection, schedule: Q01DX001 (ip), vehicle: saline
[3] = dose: 80.0 mg/kg/injection, schedule: Q01DX001 (ip), vehicle: saline
[4] = dose: 100.0 mg/kg/injection, schedule: Q01DX009 (ip), vehicle: Klucel (hydroxypropylcellulose) (HPC)
[5] = dose: 100.0 mg/kg/injection, schedule: Q04DX003 (ip), vehicle: Klucel (hydroxypropylcellulose) (HPC)
[6] = dose: 200.0 mg/kg/injection, schedule: Q01DX009 (ip), vehicle: Klucel (hydroxypropylcellulose) (HPC)
[7] = dose: 200.0 mg/kg/injection, schedule: Q04DX003 (ip), vehicle: Klucel (hydroxypropylcellulose) (HPC)
[8] = dose: 400.0 mg/kg/injection, schedule: Q01DX009 (ip), vehicle: Klucel (hydroxypropylcellulose) (HPC)
[9] = dose: 400.0 mg/kg/injection, schedule: Q04DX003 (ip), vehicle: Klucel (hydroxypropylcellulose) (HPC)
[10] = dose: 100.0 mg/kg/injection, schedule: Q04DX002 (ip), vehicle: Klucel (hydroxypropylcellulose) (HPC)
[11] = dose: 200.0 mg/kg/injection, schedule: Q04DX002 (ip), vehicle: Klucel (hydroxypropylcellulose) (HPC)
[12] = dose: 400.0 mg/kg/injection, schedule: Q04DX002 (ip), vehicle: Klucel (hydroxypropylcellulose) (HPC)
[13] = dose: 100.0 mg/kg/injection, schedule: Q01DX009 (ip), vehicle: saline
[14] = dose: 200.0 mg/kg/injection, schedule: Q01DX009 (ip), vehicle: saline
[15] = dose: 400.0 mg/kg/injection, schedule: Q01DX009 (ip), vehicle: saline
[16] = dose: 100.0 mg/kg/injection, schedule: Q04DX003 (ip), vehicle: saline with Tween-80
[17] = dose: 200.0 mg/kg/injection, schedule: Q04DX003 (ip), vehicle: saline with Tween-80
[18] = dose: 400.0 mg/kg/injection, schedule: Q04DX003 (ip), vehicle: saline with Tween-80

Measured: T/C

CCCCN=C(N)N=C(N)N
inactive: dose: 5.0 mg/kg/injection, schedule: Q01DX001 (ip), vehicle: saline 107 % of control | dose: 10.0 mg/kg/injection, schedule: Q01DX001 (ip), vehicle: saline 92 % of control | [1] 97 % of control | [2] 102 % of control | [3] 105 % of control | dose: 100.0 mg/kg/injection, schedule: Q01DX001 (ip), vehicle: saline 109 % of control

CC(=O)Nc1ccc(C=O)cc1[N+](=O)[O-]
inactive: [4] 101 % of control | [5] 100 % of control | [6] 104 % of control | [7] 100 % of control | [8] 94 % of control | [9] 100 % of control

CC[CH2][Sn]([CH2]CC)([CH2]CC)[O][Sn]([CH2]CC)([CH2]CC)[CH2]CC
inactive: dose: 0.5 mg/kg/injection, schedule: Q01DX009 (ip), vehicle: saline 95 % of control | dose: 1.0 mg/kg/injection, schedule: Q01DX009 (ip), vehicle: saline 100 % of control | dose: 1.0 mg/kg/injection, schedule: Q04DX003 (ip), vehicle: saline with Tween-80 97 % of control | dose: 2.0 mg/kg/injection, schedule: Q01DX009 (ip), vehicle: saline 93 % of control | dose: 2.0 mg/kg/injection, schedule: Q04DX003 (ip), vehicle: saline with Tween-80 90 % of control

O=C1CSC(=S)N1/N=C/c1c[nH]c2ccc(Br)cc12
inactive: dose: 75.0 mg/kg/injection, schedule: Q01DX001 (ip), vehicle: carboxymethylcellulose (CMC) 100 % of control | dose: 150.0 mg/kg/injection, schedule: Q01DX001 (ip), vehicle: carboxymethylcellulose (CMC) 97 % of control

Cn1c(C=O)cc(=O)[nH]c1=S
inactive: dose: 50.0 mg/kg/injection, schedule: Q01DX009 (ip), vehicle: Klucel (hydroxypropylcellulose) (HPC) 92 % of control | [4] 93 % of control | [5] 100 % of control | [6] 93 % of control | [7] 105 % of control | [9] 100 % of control

COc1ccccc1C[N+](C)(C)C
inactive: [1] 95 % of control | dose: 20.0 mg/kg/injection, schedule: Q01DX009 (ip), vehicle: saline 108 % of control | [2] 97 % of control | dose: 40.0 mg/kg/injection, schedule: Q01DX009 (ip), vehicle: saline 108 % of control | [3] 102 % of control

N=C1c2ccccc2-c2nc3ccccc3c(=O)n21
inactive: dose: 100.0 mg/kg/injection, schedule: Q04DX002 (ip), vehicle: saline 86 % of control | dose: 200.0 mg/kg/injection, schedule: Q04DX002 (ip), vehicle: saline 93 % of control | dose: 400.0 mg/kg/injection, schedule: Q04DX002 (ip), vehicle: saline 89 % of control

ClC(Cl)(Cl)C(c1cccs1)c1cccs1
inactive: [4] 94 % of control | [10] 93 % of control | [6] 94 % of control | [11] 96 % of control | [8] 94 % of control | [12] 96 % of control

CCOC(=O)C(CCC(C)=O)C1=NC(C)(C)CC(C)O1 (stereo unspecified)
inactive: dose: 100.0 mg/kg/injection, schedule: Q01DX009 (ip), vehicle: saline sonified 102 % of control | dose: 200.0 mg/kg/injection, schedule: Q01DX009 (ip), vehicle: saline sonified 109 % of control | dose: 400.0 mg/kg/injection, schedule: Q01DX009 (ip), vehicle: saline sonified 98 % of control

C1CN(CCN2CCOCC2)CCO1
inactive: [13] 100 % of control | [14] 93 % of control | [15] 96 % of control

CCOC(=S)c1ccc(S(=O)(=O)NCc2ccccc2)cc1
inactive: dose: 100.0 mg/kg/injection, schedule: Q01DX001 (ip), vehicle: saline with Tween-80 100 % of control | dose: 200.0 mg/kg/injection, schedule: Q01DX001 (ip), vehicle: saline with Tween-80 102 % of control | dose: 400.0 mg/kg/injection, schedule: Q01DX001 (ip), vehicle: saline with Tween-80 100 % of control

C=C(C)C1(CCCC)C(=O)NC(=S)NC1=O
inactive: dose: 75.0 mg/kg/injection, schedule: Q01DX001 (ip), vehicle: saline 102 % of control | dose: 150.0 mg/kg/injection, schedule: Q01DX001 (ip), vehicle: saline 95 % of control

CCCCCCCCCCCC(=O)NC(=S)Nc1cccc(O)c1
inactive: [10] 104 % of control | [11] 87 % of control | [12] 104 % of control

CC(=O)Oc1cc(C)c2c(c1C)C1OC(=O)C(C)C1CC2 (stereo unspecified)
inactive: dose: 100.0 mg/kg/injection, schedule: Q01DX001 (ip), vehicle: other 98 % of control | dose: 200.0 mg/kg/injection, schedule: Q01DX001 (ip), vehicle: other 98 % of control | dose: 400.0 mg/kg/injection, schedule: Q01DX001 (ip), vehicle: other 97 % of control

CNCCO
inactive: [13] 97 % of control | dose: 100.0 mg/kg/injection, schedule: Q04DX003 (ip), vehicle: saline 96 % of control | [14] 92 % of control | dose: 200.0 mg/kg/injection, schedule: Q04DX003 (ip), vehicle: saline 98 % of control | [15] 97 % of control | dose: 400.0 mg/kg/injection, schedule: Q04DX003 (ip), vehicle: saline 102 % of control

COc1ccc(C(O)(c2ccc(OC)cc2)c2ccccn2)cc1
inactive: [16] 95 % of control | [17] 102 % of control | [18] 91 % of control

COc1c(Br)c(Br)c(Br)c(OC)c1OC
inactive: dose: 50.0 mg/kg/injection, schedule: Q01DX001 (ip), vehicle: carboxymethylcellulose (CMC) 98 % of control | dose: 100.0 mg/kg/injection, schedule: Q01DX001 (ip), vehicle: carboxymethylcellulose (CMC) 101 % of control | dose: 200.0 mg/kg/injection, schedule: Q01DX001 (ip), vehicle: carboxymethylcellulose (CMC) 106 % of control | dose: 400.0 mg/kg/injection, schedule: Q01DX001 (ip), vehicle: carboxymethylcellulose (CMC) 98 % of control

O=C1OCCN1c1ccccc1
inactive: dose: 100.0 mg/kg/injection, schedule: Q01DX001 (ip), vehicle: Klucel (hydroxypropylcellulose) (HPC) 90 % of control | dose: 100.0 mg/kg/injection, schedule: Q01DX009 (ip), vehicle: saline with Tween-80 93 % of control | [16] 101 % of control | dose: 200.0 mg/kg/injection, schedule: Q01DX001 (ip), vehicle: Klucel (hydroxypropylcellulose) (HPC) 87 % of control | dose: 200.0 mg/kg/injection, schedule: Q01DX009 (ip), vehicle: saline with Tween-80 90 % of control | [17] 113 % of control | dose: 400.0 mg/kg/injection, schedule: Q01DX001 (ip), vehicle: Klucel (hydroxypropylcellulose) (HPC) 100 % of control | dose: 400.0 mg/kg/injection, schedule: Q01DX009 (ip), vehicle: saline with Tween-80 93 % of control | [18] 95 % of control
